Results published in patent US11090319B2, “Therapeutic uses of pharmaceutical compositions comprising cyclic boronic acid ester derivatives” (Melinta Subsidiary Corp., priority 2010, dated 2021).

System: strains expressing KPC alone or in combination with additional beta-lactamases
Experiment: microbe, parasite or virus in culture
Format: cell-based
[1] = Klebsiella pneumoniae KP 1004, KPC-2, Compound 5 10 mg/L
[2] = Klebsiella pneumoniae KP 1008, KPC-2, Compound 5 0.31 mg/L
[3] = Klebsiella pneumoniae KP 1008, KPC-2, Compound 5 0.625 mg/L
[4] = Klebsiella pneumoniae KP 1008, KPC-2, Compound 5 […]
[5] = Klebsiella pneumoniae KP1082, KPC-2 SHV-1, Compound 5 0.31 mg/L
[6] = Klebsiella pneumoniae KP1082, KPC-2 SHV-1, Compound 5 0.625 mg/L
[7] = Klebsiella pneumoniae KP1082, KPC-2 SHV-1, Compound 5 5 mg/L
[8] = Klebsiella pneumoniae KP1082, KPC-2 SHV-1, Compound 5 10 mg/L
[9] = Klebsiella pneumoniae KP1082, KPC-2 SHV-1, Compound 5 […]
[10] = Klebsiella pneumoniae KP1083, KPC-3, SHV-1, TEM-1, Compound 5 10 mg/L
[11] = Klebsiella pneumoniae KP1083, KPC-3, SHV-1, TEM-1, Compound 5 […]
[12] = Klebsiella pneumoniae KP1084, KPC-3, SHV-11, TEM-1, Compound 5 5 mg/L
[13] = Klebsiella pneumoniae KP1084, KPC-3, SHV-11, TEM-1, Compound 5 10 mg/L
[14] = Klebsiella pneumoniae KP 1087, KPC-2, CTX-M-15, SHV-11, TEM-1, Compound 5 0.31 mg/L
[15] = Klebsiella pneumoniae KP 1087, KPC-2, CTX-M-15, SHV-11, TEM-1, Compound 5 0.625 mg/L
[16] = Klebsiella pneumoniae KP 1087, KPC-2, CTX-M-15, SHV-11, TEM-1, Compound 5 5 mg/L
[17] = Klebsiella pneumoniae KP 1087, KPC-2, CTX-M-15, SHV-11, TEM-1, Compound 5 10 mg/L
[18] = Klebsiella pneumoniae KP1088, KPC-3, SHV-11, TEM-1, Compound 5 0.31 mg/L
[19] = Klebsiella pneumoniae KP1088, KPC-3, SHV-11, TEM-1, Compound 5 0.625 mg/L
[20] = Klebsiella pneumoniae KP1088, KPC-3, SHV-11, TEM-1, Compound 5 5 mg/L
[21] = Klebsiella pneumoniae KP1088, KPC-3, SHV-11, TEM-1, Compound 5 10 mg/L

O=C(O)C[C@@H]1CC[C@H](NC(=O)Cc2cccs2)B(O)O1 [Compound 5, 2-((3R,6S)-2-hydroxy-3-(2-(thiophen-2-yl)acetamido)-1,2-oxaborinan-6-yl)acetic acid]
MIC of Ertapenem (Klebsiella pneumoniae KP 1004, KPC-2, Compound 5 5 mg/L): X (MIC of less than 0.5 mg/L)
MIC of Biapenem [1]: X (MIC of less than 0.5 mg/L)
MIC of Doripenem [1]: X (MIC of less than 0.5 mg/L)
MIC of Ertapenem [1]: X (MIC of less than 0.5 mg/L)
MIC of Biapenem (Klebsiella pneumoniae KP 1004, KPC-2, Compound 5 […]): X (MIC of less than 0.5 mg/L)
MIC of Biapenem [2]: X (MIC of less than 0.5 mg/L)
MIC of Doripenem [2]: X (MIC of less than 0.5 mg/L)
MIC of Ertapenem [2]: X (MIC of less than 0.5 mg/L)
MIC of Biapenem [3]: X (MIC of less than 0.5 mg/L)
MIC of Doripenem [3]: X (MIC of less than 0.5 mg/L)
MIC of Ertapenem [3]: X (MIC of less than 0.5 mg/L)
MIC of Biapenem [4]: X (MIC of less than 0.5 mg/L)
MIC of Doripenem [4]: X (MIC of less than 0.5 mg/L)
MIC of Ertapenem [4]: X (MIC of less than 0.5 mg/L)
MIC of Biapenem [5]: X (MIC of less than 0.5 mg/L)
MIC of Doripenem [5]: X (MIC of less than 0.5 mg/L)
MIC of Ertapenem [5]: X (MIC of less than 0.5 mg/L)
MIC of Biapenem [6]: X (MIC of less than 0.5 mg/L)
MIC of Doripenem [6]: X (MIC of less than 0.5 mg/L)
MIC of Ertapenem [6]: X (MIC of less than 0.5 mg/L)
MIC of Biapenem [7]: X (MIC of less than 0.5 mg/L)
MIC of Doripenem [7]: X (MIC of less than 0.5 mg/L)
MIC of Ertapenem [7]: X (MIC of less than 0.5 mg/L)
MIC of Biapenem [8]: X (MIC of less than 0.5 mg/L)
MIC of Doripenem [8]: X (MIC of less than 0.5 mg/L)
MIC of Ertapenem [8]: X (MIC of less than 0.5 mg/L)
MIC of Biapenem [9]: X (MIC of less than 0.5 mg/L)
MIC of Doripenem [9]: X (MIC of less than 0.5 mg/L)
MIC of Ertapenem [9]: X (MIC of less than 0.5 mg/L)
MIC of Doripenem [10]: X (MIC of less than 0.5 mg/L)
MIC of Ertapenem [10]: X (MIC of less than 0.5 mg/L)
MIC of Doripenem [11]: Y (MIC of 0.5 mg/L to 4 mg/L)
MIC of Ertapenem [11]: Y (MIC of 0.5 mg/L to 4 mg/L)
MIC of Ertapenem (Klebsiella pneumoniae KP1084, KPC-3, SHV-11, TEM-1, Compound 5 0.31 mg/L): Z (MIC of greater than 4 mg/L)
MIC of Ertapenem (Klebsiella pneumoniae KP1084, KPC-3, SHV-11, TEM-1, Compound 5 0.625 mg/L): Z (MIC of greater than 4 mg/L)
MIC of Biapenem [12]: X (MIC of less than 0.5 mg/L)
MIC of Doripenem [12]: Y (MIC of 0.5 mg/L to 4 mg/L)
MIC of Ertapenem [12]: Y (MIC of 0.5 mg/L to 4 mg/L)
MIC of Biapenem [13]: X (MIC of less than 0.5 mg/L)
MIC of Doripenem [13]: X (MIC of less than 0.5 mg/L)
MIC of Ertapenem [13]: Y (MIC of 0.5 mg/L to 4 mg/L)
MIC of Ertapenem (Klebsiella pneumoniae KP1084, KPC-3, SHV-11, TEM-1, Compound 5 […]): Z (MIC of greater than 4 mg/L)
MIC of Biapenem [14]: Z (MIC of greater than 4 mg/L)
MIC of Doripenem [14]: Z (MIC of greater than 4 mg/L)
MIC of Ertapenem [14]: Z (MIC of greater than 4 mg/L)
MIC of Biapenem [15]: Z (MIC of greater than 4 mg/L)
MIC of Doripenem [15]: Z (MIC of greater than 4 mg/L)
MIC of Ertapenem [15]: Z (MIC of greater than 4 mg/L)
MIC of Biapenem [16]: X (MIC of less than 0.5 mg/L)
MIC of Doripenem [16]: Y (MIC of 0.5 mg/L to 4 mg/L)
MIC of Ertapenem [16]: Y (MIC of 0.5 mg/L to 4 mg/L)
MIC of Biapenem [17]: X (MIC of less than 0.5 mg/L)
MIC of Doripenem [17]: X (MIC of less than 0.5 mg/L)
MIC of Ertapenem [17]: Y (MIC of 0.5 mg/L to 4 mg/L)
MIC of Ertapenem (Klebsiella pneumoniae KP 1087, KPC-2, CTX-M-15, SHV-11, TEM-1, Compound 5 […]): Z (MIC of greater than 4 mg/L)
MIC of Biapenem [18]: X (MIC of less than 0.5 mg/L)
MIC of Doripenem [18]: Y (MIC of 0.5 mg/L to 4 mg/L)
MIC of Ertapenem [18]: Y (MIC of 0.5 mg/L to 4 mg/L)
MIC of Biapenem [19]: X (MIC of less than 0.5 mg/L)
MIC of Doripenem [19]: X (MIC of less than 0.5 mg/L)
MIC of Ertapenem [19]: X (MIC of less than 0.5 mg/L)
MIC of Biapenem [20]: X (MIC of less than 0.5 mg/L)
MIC of Doripenem [20]: X (MIC of less than 0.5 mg/L)
MIC of Ertapenem [20]: X (MIC of less than 0.5 mg/L)
MIC of Biapenem [21]: X (MIC of less than 0.5 mg/L)
MIC of Doripenem [21]: X (MIC of less than 0.5 mg/L)
MIC of Ertapenem [21]: X (MIC of less than 0.5 mg/L)
